The test system of data set [1] is LoVo/ADR cells (ABCB1-overexpressing).
Protocol: (§1) The human colon cancer cell lines LoVo, HCT8, Caco-2 were obtained from the Cell Bank of the Chinese Academy of Sciences. DOX-selected ABCB1-overexpression LoVo/ADR, HCT8/ADR, Caco-2/ADR cell lines were purchased from Shanghai Yan Sheng Industrial Co., LTD. […] All the DOX-selected ABCB1-overexpression cells were seeded in a medium containing 1μM of DOX to maintain their drug resistance phenotype.
Data set [2] deals with LoVo cells. The data set can be described thus: cells. It is filed as cell-based, human.
Protocol: as §1
Data set [3] has as its system HCT8/ADR cells (ABCB1-overexpressing).
Protocol: as §1
In data set [4] the test system is HCT8/ABCB1 cells (ABCB1-transfected).
Protocol: (§2) HCT8/pcDNA3.1 and HCT8/ABCB1 cells were established by transfecting HCT8 with empty pcDNA3.1 or vector containing the full length ABCB1, and were cultured in medium with 2 mg/ml G418.
For data set [5], the system named is HCT8 cells. Nature of the data set: cells. It counts as cell-based, human.
Protocol: as §1
Data set [6] concerns HCT8/pcDNA3.1 cells. The data set can be described thus: cells. It counts as cell-based, human.
Protocol: as §2
Data set [7] in a line: Toxicity analysis in xenograft mice. It is filed as in vivo, athymic nude mice (BALB/c-nu/nu). On the procedure: Normal tissues (heart, liver, lung, spleen, kidney, intestine) were harvested for H&E histology studies. Venous blood samples were collected in EDTA-coated tubes for hematology studies. Samples were analyzed for white blood cells (WBC), red blood cells (RBC), platelets (PLT), aspartate aminotransferase (AST), alanine aminotransferase (ALT) and blood urea nitrogen (BUN) in the clinical laboratory at our hospital.

Data set [8] deals with HCT8/ADR xenografts. The data set can be described thus: HCT8/ADR nude mouse xenograft model. To be noted: for tumor size versus saline: q3d×5, alone.
The test system of data set [9] is LoVo/ADR, HCT8/ADR, HCT8/ABCB1 and Caco-2/ADR cells and parental cells. The data set can be described thus: CCK-8 cytotoxicity of BU (non-toxic concentrations). It is filed as cell-based, human. To be noted: MDR and parental cells.
Data set [10] deals with MDR in colon cancer. The data set can be described thus: Preliminary experiment on Chansu ingredients and MDR. It counts as cell-based. To be noted: six active ingredients of Chansu.
Data set [11] concerns HCT8/ADR cells (ABCB1-overexpressing). Nature of the data set: cells. To be noted: Homo sapiens.
Protocol: as §1
In data set [12] the test system is LoVo/ADR cells (ABCB1-overexpressing). Nature of the data set: cells. To be noted: Homo sapiens.
Protocol: as §1
The subject of data set [13] is HCT8/ABCB1 cells (ABCB1-transfected). Nature of the data set: cells. To be noted: Homo sapiens.
Protocol: as §2
In data set [14] the test system is ABCB1. The data set can be described thus: ABCB1-mediated drug transport assay (Caco-2 monolayer). The settings on record: human.
Protocol: Caco-2 cells were seeded on a Costar 12-well Transwell Permeable Supports plates (0.4 μm pore size, 1.13 cm^2 of growth area, 12 mm diameter) at a density of 5.0×10^4cells/cm^2. Replaced the medium every other day and incubate plates at 37°C for 21 days. Transepithelial electrical resistance (TEER) and Lucifer yellow permeability (LY%) was measured to evaluate the integrity of the monolayer. […] Cells were washed 3 times with HBSS buffer and preincubated for 15 min. Test drugs were diluted in HBSS with 0.5 ml added to the apical side (A) or 1.5 ml to the basolateral side (B). […] Analyte concentrations were determined by Thermo Varioskan Flash.
The apparent permeability coefficient (Papp) was determined for both A to B and B to A directions by the following formula: Papp=dC/dt×V/AC0 in which A is the area of filter membrane, C0 represents the initial concentration of drug, dC/dt is the change of concentration of drug in the period of incubation time, and V is the volume of the receiver chamber. The efflux ratio (ER) was calculated from: ER=Papp(B to A)/Papp (A to B)
The mark [15] stands for this setting: HCT-8, 48 h, read-out: IC50 of DOX.
Setting [16] is: Homo sapiens, HCT-8, 48 h, read-out: IC50 of DOX.
Where [17] appears, read: Homo sapiens, HCT-8, read-out: IC50 of MIT.

Where two headings read alike, the source gives them in different places.

With “5(6)-carboxy-2′,7′-dichlorofluorescein [CDCF]”, the IC50 is 1.13 ± 0.05 mM in data set [1] (read-out: IC50 of CDCF, LoVo/ADR, CDCF alone); 1020 ± 110 µM in data set [2] (CDCF alone, read-out: IC50 of CDCF); 960 ± 160 µM in data set [3] (read-out: IC50 of CDCF, HCT8/ADR, CDCF alone); 1.08 ± 0.14 mM in data set [4] (read-out: IC50 of CDCF, HCT8/ABCB1, CDCF alone); 700000 ± 100000 nM in [5] (HCT8, CDCF alone, read-out: IC50 of CDCF); 910000 ± 180000 nM in data set [6] (HCT8/pcDNA3.1, CDCF alone, read-out: IC50 of CDCF).
Turning to `C[C@]12CC[C@H](O)C[C@H]1CC[C@@H]1[C@@H]2CC[C@]2(C)[C@@H](c3ccc(=O)oc3)CC[C@]12O` [BU, Bufalin], the toxicity on mice result in data set [7] (BU 0.1mg/kg) is “did not induce any toxicity”. Moreover, in data set [8] (BU 0.1 mg/kg, i.p.), the “tumor size versus saline” value was “No significant difference”. The “ABCB1 expression in tumor tissue (IHC)” value in data set [8] (HCT8/ADR xenografts, BU 0.1 mg/kg) is “inhibit ABCB1 expression in vivo”. Besides, the “non-toxic concentration (survival rate higher than 80%), maximum for reversal assays” value in data set [9] is listed as “up to 20 nM”. In [10], the “effect on MDR” value is “could effectively reverse MDR”.
As to `COc1cccc2c1C(=O)c1c(O)c3c(c(O)c1C2=O)C[C@@](O)(C(=O)CO)C[C@@H]3O[C@H]1C[C@H](N)[C@H](O)[C@H](C)O1` [DOX, doxorubicin], the “fold-reversal of MDR” value in [1] was 16.28 ± 0.54 (1.00); in data set [2] (DOX alone (reference)), 1.00; in [3], 7.20 ± 0.80 (1.00); in data set [4], 13.35 ± 1.15 (1.00); in [5] (HCT8, DOX alone (reference)) it was 1.00; in data set [6] (HCT8/pcDNA3.1, DOX alone (reference)) it was 1.00. Besides, the IC50 in data set [11] (setting [15]) is 7.2 ± 0.8 µM; in data set [12] (48 h, read-out: IC50 of DOX), 16.3 ± 0.54 µM; in data set [2] (Homo sapiens, 48 h, read-out: IC50 of DOX) it was 1.87 ± 0.15 µM; in [5] (setting [16]) it was 550 ± 140 nM; in data set [6] (setting [16]), 670 ± 120 nM; in data set [13] (setting [15]) it was 13.3 ± 1.15 µM. The “significant toxicity: deaths” value in [7] (DOX 0.5 mg/kg and DOX 1.0 mg/kg groups, with weight loss) was 2 deaths out of 6 mice. Also, the “alanine transaminase (ALT) and aspartate transaminase (AST)” value in data set [7] (high concentration DOX (0.5, 1.0 mg/kg)) was “significantly elevated”. Also, the “tumor size versus saline” value in data set [8] (DOX 0.1 mg/kg, i.p.) is recorded as “No significant difference”. Also, the tumor growth inhibition result in data set [8] (DOX 0.1, 0.5, 1.0 mg/kg, i.p., q3d×5) was “inhibit tumor growth with a concentration-dependent pattern”. Besides, in data set [14], the apparent permeability from apical to basolateral (Papp A→B) at 120 min, 20 μM is 0.68 ± 0.18 ×10⁻⁶ cm/s. In [14], this compound came in with a Papp B→A at 120 min, 20 μM of 3.91 ± 0.68 ×10⁻⁶ cm/s. In addition, the efflux ratio at 120 min, 20 μM in [14] came to 5.75.
For the compound `O=C1c2c(O)ccc(O)c2C(=O)c2c(NCCNCCO)ccc(NCCNCCO)c21` [MIT, mitoxantrone], the IC50 was 1.02 ± 0.28 µM in [11] (HCT-8, read-out: IC50 of MIT); 1.23 ± 0.08 µM in data set [12] (read-out: IC50 of MIT); 1.05 ± 0.09 µM in data set [2] (Homo sapiens, read-out: IC50 of MIT); 850 ± 150 nM in data set [5] (setting [17]); 880 ± 280 nM in data set [6] (setting [17]); 1 ± 0.2 µM in data set [13] (HCT-8, read-out: IC50 of MIT).
Regarding `CC(=O)O[C@H]1[C@H]2O[C@]23[C@@H]2CC[C@@H]4C[C@@H](O)CC[C@]4(C)[C@H]2CC[C@]3(C)[C@H]1c1ccc(=O)oc1` [cinobufagin], in [10], the “effect on MDR” value is “could effectively reverse MDR”.

By IC50 is commonly meant the concentration that gives 50% inhibition. The term Papp A→B denotes how fast a substance crosses the layer from the apical side. Higher therefore signals fast passage. By Papp B→A is commonly meant the apparent permeability from the basolateral to the apical side of a cell layer. Usually efflux ratio stands for a quotient of directional permeabilities that is used to spot active efflux.

Values taken from article PMC5564622 (Oncotarget, 2017).
